Reference: patent US10815219B2, “2,4-diaminoquinazoline derivatives for inhibiting endoplasmic reticulum (ER) stress” (The Board of Regents of the University of Oklahoma, priority 2017, dated 2020)

Assays:
[1] = test system: PDX1 and MafA mRNA; experiment: qRT-PCR of β cell transcription factors in Tm-treated INS-1 cells; format: cell-based, rat; settings: Tm 0.1 μg/mL, 9c 20 μM, 24 h, FIG. 5C, D
Description: (§1) ER stress also impairs the most important function of β cells: the biosynthesis and secretion of insulin. Multiple steps of insulin synthesis and secretion are impaired under ER stress; they include insulin gene transcription, insulin mRNA stability, protein translation, and the insulin protein secretory process. First, we examined whether compound 9c could rescue Tm-suppressed mRNA levels of insulin genes. […] Second, we examined whether compound 9c affects the expression of β cell transcription factors PDX1 and MafA, which control β cell identity and the expression of insulin genes. Chronic exposure to supraphysiologic concentrations of glucose and its associated ER stress cause the down-regulation of expression of PDX1 and MafA. Consistent with this notion, Tm decreased the levels of PDX1 and MafA mRNA expression levels in INS-1 cells. […] Next, we explored whether compound 9c re-establishes Tm-impaired glucose-stimulated insulin secretion (GSIS).
(§2) INS-1 cells were seeded at 4×10^5 cells/well in 6-well plates and treated with compounds for the indicated times. Total RNA was extracted using TRIzol reagent (Invitrogen, Carlsbad, Calif.) according to the manufacturer's protocol, and 2 μg of total RNA was reverse transcribed using a Superscript kit (Invitrogen). […]

[2] = test system: cleaved caspase-3 and PARP; experiment: Western blotting of cleaved caspase-3 and cleaved PARP in Tm-treated INS-1 cells; format: cell-based, rat; settings: Tm 0.1 μg/mL, 9c 20 μM, 24 h, FIG. 4A
Experimental: To determine whether the increase in cell viability following treatment with 9c was caused by a suppression of apoptotic cell death, levels of cleaved caspase-3 and cleaved PARP were assessed by Western blotting. Caspase-3, a member of executioner caspases, plays essential roles in initiating apoptotic signaling and executing the final stages of cell death as it is responsible for the proteolytic cleavage of many key proteins, such as the nuclear enzyme poly (ADP-ribose) polymerase (PARP) which is a family of proteins involved in a number of cellular processes involving DNA repair and cell death. […] However, upon severe ER stress, caspase 3 undergoes proteolytic cleavage to produce two subunits that dimerize to form the active enzyme, which in turns cleaves PARP.
INS-1 cells were seeded in 60-mm dishes at 8×10^5 cells/dish and treated for the indicated times. Cells were then washed with PBS and lysed with lysis buffer (Cell Signaling Technology, Danvers, Mass.) containing EDTA (Thermo, IL) and phosphatase inhibitors (Thermo). Aliquots of 20 μg total protein were separated on 7% SDS-PAGE gels (Life Technologies) and transferred to PVDF membranes (Life Technologies). The membranes were probed with primary antibodies followed by the appropriate HRP-conjugated secondary antibodies (goat anti-rabbit IgG and goat anti-mouse IgG, 1:3000; Santa Cruz Biotechnology, CA, USA). […]

[3] = test system: ATF4 and CHOP mRNA; experiment: qRT-PCR of ATF4 and CHOP in Tm-treated INS-1 cells; format: cell-based, rat; settings: Tm 0.1 μg/mL, 9c 20 μM, FIG. 8A, B
Description: We then determined the effect of 9c on the activation of the PERK pathway in β cells under ER stress. Activated PERK phosphorylates eukaryotic translation initiator factor 2a (eIF2α), which in turn attenuates general protein synthesis to relieve ER load. EIF2α phosphorylation also allows the selective translation of ATF4 mRNA, which encodes a transcription factor that induces the expression of the pro-apoptotic gene C/EBP-homologous protein (CHOP). Thus, we used ATF4 and CHOP expression levels as markers of PERK pathway activation. […] Together, our results that 9c inhibited the ER stress-mediated activation of all three UPR pathways indicate that 9c protects β cell survival by alleviating ER stress.
INS-1 cells were seeded at 4×10^5 cells/well in 6-well plates and treated with compounds for the indicated times. Total RNA was extracted using TRIzol reagent (Invitrogen, Carlsbad, Calif.) according to the manufacturer's protocol, and 2 μg of total RNA was reverse transcribed using a Superscript kit (Invitrogen). Real-time PCR was performed in 96-well format using SYBR Select Master Mix (Applied Biosystems, Foster City, Calif.) with an ABI 7500 PCR system (Applied Biosystems). The primer sequences used are shown in U.S. Ser. No. 62/542,408, Aug. 8, […].

[4] = test system: primary human β cells; experiment: TUNEL staining of primary human islet β cells treated with Tm; format: cell-based; settings: primary human islets, Tm 1 μg/mL, 9c 10 μM, 48 h; Tm alone 15%, DMSO 2.5%
Description: (§3) We determined whether 9c suppresses the apoptosis of primary human β cells induced by Tm treatment as assessed by TUNEL, which detects fragmentation of DNA, a marker of apoptotic cell death. […] Next, we investigated whether 9c restored the Tm-induced insulin secretion defect. […] ER stress induces activation of three branches of UPR (PERK, IRE1α, and ATF6), leading to up-regulation of ATF4, XBP1s, Bip, […], CHOP and eventual activation caspase 3 and cell apoptosis, while diminishing the expression of PDX1, MAFA and insulin genes, leading to β cell dysfunction. Compound 9c protects β cell against ER stress-mediated dysfunction and death by down-regulating ATF4, XBP1s, Bip, GRP94, CHOP, and caspase 3 and up-regulating PDX1, MAFA and insulin genes.
Primary human islets were washed with PBS and fixed with 4% paraformaldehyde for 30 min. Fixed cells were then blocked in 5% normal donkey serum for 30 min. Polyclonal guinea pig anti-insulin (A0564, Dako, 1:500 dilution) was used as primary antibody. Donkey Cy3 anti-guinea pig IgG was used as the secondary antibody. TUNEL staining was performed with In Situ Cell Death Detection Kit-Fluorescein (Roche) according to the manufacturer's instructions. DAPI was used for nuclear counter-staining. Images were taken with an Olympus FV1000 confocal microscope.

[5] = test system: INS1 and INS2 mRNA; experiment: qRT-PCR of insulin genes in Tm-treated INS-1 cells; format: cell-based, rat; settings: Tm 0.1 μg/mL, 9c 20 μM, 24 h, FIG. 5A, B
Description: as §1, §2

[6] = test system: primary human islets; experiment: Glucose-stimulated insulin secretion in Tm-treated primary human islets; format: cell-based; settings: Tm 1 μg/mL, 48 h, 20 mM glucose, FIG. 9C
Description: as §3
INS-1 or primary human islet cells were plated in 96-well plates. The second day, Tm and compound 9c were added and maintained for 24 h (INS-1) or 48 h (human islets). […] The secreted insulin was measured with insulin ELISA kits (for mouse insulin from Millipore and for human insulin from LifeTech). Cells were lysed with RIPA buffer (50 mM Tris HCl pH 7.4, 1% NP-40, 0.25% sodium deoxycholate, 150 mM NaCl), and total cellular protein was determined with a Bradford protein assay. […]

**Q.** How did the “PDX1 and MafA mRNA expression levels” value [1] turn out when `COc1ccc(CNc2nc(N3CCCCC3CO)nc3ccccc23)cc1` (racemic) [Compound 9c, (1-(4-((4-methoxybenzyl)amino)quinazolin-2-yl)piperidin-2-yl)methanol] was run?
**A.** almost completely reversed this decrease to normal levels

**Q.** And the “cleaved caspase-3 and cleaved PARP protein levels” value [2]?
**A.** significantly reversed Tm-induced cleavage of both caspase-3 and PARP

**Q.** What about the “ATF4 and CHOP mRNA levels” value [3] of the same molecule?
**A.** decrease in both their levels

**Q.** And the “percentage of TUNEL+ insulin+ cells” value [4]?
**A.** 3.5%

**Q.** What about the “mRNA levels of insulin genes INS1 and INS2” value [5] of the same molecule?
**A.** completely rescued

**Q.** What about the “glucose-stimulated insulin secretion (GSIS)” value [6] of the same molecule?
**A.** significantly reversed this effect and restored the Tm-impaired GSIS
